Measurements: patent publication US7553868B2, “Thiophene carboxamides as inhibitors of the enzyme IKK-2” (AstraZeneca AB, priority 2003, dated 2009)

How the values were obtained:
IKK-2 = molecular target: T1, IKK-2 (Homo sapiens, UniProt O14920); assay: IKK-2 filter kinase assay; type: biochemical; conditions: 1 μM ATP, 1-53 GST-IκB substrate, read-out: Inhibition of IKK-2
T1 sequence (O14920 1-756): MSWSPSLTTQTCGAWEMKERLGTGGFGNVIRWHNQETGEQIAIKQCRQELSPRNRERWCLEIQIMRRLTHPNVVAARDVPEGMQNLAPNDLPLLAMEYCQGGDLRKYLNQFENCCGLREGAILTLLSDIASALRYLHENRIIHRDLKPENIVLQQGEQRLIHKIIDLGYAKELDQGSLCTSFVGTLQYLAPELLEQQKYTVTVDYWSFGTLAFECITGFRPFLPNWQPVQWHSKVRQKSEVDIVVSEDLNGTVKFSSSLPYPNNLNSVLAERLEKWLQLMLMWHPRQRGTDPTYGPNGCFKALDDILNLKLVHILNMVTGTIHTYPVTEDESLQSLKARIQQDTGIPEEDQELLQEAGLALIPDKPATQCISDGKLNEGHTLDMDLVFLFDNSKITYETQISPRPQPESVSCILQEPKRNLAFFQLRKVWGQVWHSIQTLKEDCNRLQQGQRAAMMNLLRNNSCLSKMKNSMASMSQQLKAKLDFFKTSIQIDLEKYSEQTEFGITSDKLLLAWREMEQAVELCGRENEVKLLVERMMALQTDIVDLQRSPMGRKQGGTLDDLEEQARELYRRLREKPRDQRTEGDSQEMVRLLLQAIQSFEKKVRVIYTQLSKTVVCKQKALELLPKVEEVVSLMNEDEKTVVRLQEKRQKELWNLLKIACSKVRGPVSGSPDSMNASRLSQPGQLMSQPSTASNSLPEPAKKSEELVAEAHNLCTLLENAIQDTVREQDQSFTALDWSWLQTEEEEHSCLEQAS
Description: IKK-2 Filter Kinase Assay
The test compounds were dissolved to 10 mM in dimethylsulphoxide (DMSO). The compounds were then diluted 1 in 40 in kinase buffer (50 mM Tris, pH 7.4 containing 0.1 mM EGTA, 0.1 mM sodium orthovanadate and 0.1% β-mercaptoethanol). 1 in 3 serial dilutions were made from this solution with 2.5% DMSO in kinase buffer. 20 μl of compound dilution was added to wells of a 96 well plate in duplicate. 20 μl 2.5% DMSO in kinase buffer instead of compound was added to control wells (0% inhibition). […] 10 μl of a mixture of magnesium acetate, unlabelled ATP, and ^33P-labelled ATP was added to each well made such that the final concentration was 10 mM magnesium acetate, 1 μM ATP and 0.1 μCi ^33P ATP. […] The final reaction volume was 50 μl.
The kinase reactions were incubated at 21° C. for 80 minutes and the reaction stopped by precipitating the protein by the addition of an equal volume (50 μl) of 20% trichloroacetic acid (TCA). The precipitate was allowed to form for 10 minutes and then filtered onto a GF/C unifilter 96 well plate. Each filter was washed twice with approximately 1 ml 2% TCA. The filter plate was dried at 30-40° C. for 60 minutes, 20 μl scintillant was added to each well and the plate sealed and radioactivity counted on a Packard Topcount microplate scintillation counter.

[1] = Compound permeability and efflux potential using Caco-2 cell monolayers; type: in vitro ADME, human; parameters: Caco-2 Assay Papp: unit not given here; conditions: human, Caco-2; 10 μM compound, pH 7.4, 120 min at 37° C.; efflux ratio; read-out: Caco-2 Assay Papp (B-A)/Papp(A-B) Ratio
Description: (§1) Assessment of Compound Permeability and Efflux Potential using CACO-2 Cell Monolayers.
(§2) Caco-2 cells are a cell line derived from human colon cancer cells. The Caco-2 cells retain many of the properties of the human gut, including tight junctions and transporter proteins (e.g. pgp transporter), and are used primarily to assess the potential of compounds to be absorbed after oral administration. In this assay protocol, transports in the apical to basolateral direction (A-B direction) as well as in the opposite direction (B-A direction) are determined to assess both permeability and efflux potentials of the test compounds.
(§3) Cells are seeded at a density of 100,000 cells/well onto 1 μm filters within each well of 24-well plates (Beckton-Dickinson, UK) and grown until an intact monolayer of the cells is formed across each well (14 days).
(§4) When ready for use the intactness of the monolayers is assessed using measurement of the Trans-Epithelial Resistance (TEER) within each well. If TEERs are acceptable, each test compound is added to pH 7.4 buffer to a concentration of 10 μM in either the upper (Apical; A) or lower (Basolateral; B) chambers of the individual wells of the 24-well plates in duplicate, resulting in replicate measurements of the permeability of each compound through the monolayers in both the A-B and B-A directions. Four reference compounds are incubated alongside test compounds for quality control purposes (low, medium and high permeability plus one known efflux substrate).
(§5) After mixing, an aliquot of the donor chamber is taken immediately for analysis (TO). The plates are then incubated for 120 min at 37° C., after which a further aliquot is taken from the donor chamber (used to assess recovery over the duration of the experiment), while a similar aliquot is taken from the recipient chamber at this time (T120 sample).
(§6) All sample manipulations are undertaken on a Tecan Genesis RS200 robot.
(§7) All samples are analysed using LC-electrospray MS (both + and − mode), and peak areas used to quantify each test agent.
(§8) From the data obtained the rate of transfer (Papp) of each compound across the monolayer is calculated in either the A-B or B-A directions. From the Papp(A-B) data, the potential human absorption is categorised as LOW (Papp<=[…].cm^2.sec^−1), PARTIAL (Papp>0.5<=2.9×10^6 cm^2.sec^−1) or HIGH (Papp>2.9×10^6.cm^2.sec^−1), while from the Papp(B-A)/Papp(A-B) ratio, the potential for efflux of the test compound is assessed, where a ratio≧5 is categorised as HIGH, and <5 is categorised as LOW.

Caco-2 cell monolayers = assay: as above; type: in vitro ADME, human; parameters: Caco-2 Assay Papp: unit not given here; conditions: 10 μM compound, pH 7.4, 120 min at 37° C.; Papp(A-B) used for absorption category
Description: as §1, §2, §3, §4, §5, §6, §7, §8

Row | Structure (SMILES) | IC50 (IKK-2) [nM] | efflux ratio at 120 min, 10 μM [1] | Caco-2 Assay Papp (Caco-2 cell monolayers)
1 | NC(=O)Nc1sc(-c2ccccc2OCCN2Cc3ccccc3C2)cc1C(N)=O [Example 5, 2-[(Aminocarbonyl)amino]-5-[2-{2-(1,3-dihydro-2H-isoindol-2-yl)ethoxy}phenyl]thiophene-3-carboxamide] | 150 | 0.66 | 14.3
2 | NC(=O)Nc1sc(-c2ccccc2OC2CCN(Cc3ccccc3)C2)cc1C(N)=O (stereo not drawn) [Example 7, 2-[(Aminocarbonyl)amino]-5-[2-{[1-benzylpyrrolidin-3-yl]oxy}phenyl]thiophene-3-carboxamide] | 40 | 1.07 | 15.7
3 | NC(=O)Nc1cc(-c2ccccc2OCCN2Cc3ccccc3C2)sc1C(N)=O [Example 13, 3-[(Aminocarbonyl)amino]-5-[2-{2-(1,3-dihydro-2H-isoindol-2-yl)ethoxy}phenyl]thiophene-2-carboxamide] | 1430 | 1.26 | 23.6

Stronger by IC50 (IKK-2), values ahead:

Row | IC50 (IKK-2) [nM] | efflux ratio at 120 min, 10 μM [1] | Caco-2 Assay Papp (Caco-2 cell monolayers) | Structure (SMILES)
4 | 30 | 5.88 | 1.86 | COCCN1CCC(Oc2ccccc2-c2cc(C(N)=O)c(NC(N)=O)s2)C1 (stereo not drawn) [2-[(Aminocarbonyl)amino]-5-(2-{[1-(2-methoxyethyl)-pyrrolidin-3-yl]oxy}phenyl)-3-thiophenecarboxamide, reference compound]
5 | 10 | 8.14 | 2.19 | CN1CCC(Oc2ccccc2-c2cc(C(N)=O)c(NC(N)=O)s2)C1 (stereo not drawn) [2-[(Aminocarbonyl)amino]-5-(2-[{1-methylpyrrolidin-3-yl}oxy]phenyl)-3-thiophenecarboxamide, reference compound]
